Values quoted from earlier work, collected in patent US20260033492A1, “Pest Repellents and Uses Thereof” (priority 2020, published 2026).

What was measured:
acetylcholinesterase = acetylcholinesterase (Homo sapiens, UniProt P22303); details: in humans
[1] = in vivo
insects = details: in vivo
salamander larvae = details: in vivo

acetylcholinesterase, sequence (P22303 32-614): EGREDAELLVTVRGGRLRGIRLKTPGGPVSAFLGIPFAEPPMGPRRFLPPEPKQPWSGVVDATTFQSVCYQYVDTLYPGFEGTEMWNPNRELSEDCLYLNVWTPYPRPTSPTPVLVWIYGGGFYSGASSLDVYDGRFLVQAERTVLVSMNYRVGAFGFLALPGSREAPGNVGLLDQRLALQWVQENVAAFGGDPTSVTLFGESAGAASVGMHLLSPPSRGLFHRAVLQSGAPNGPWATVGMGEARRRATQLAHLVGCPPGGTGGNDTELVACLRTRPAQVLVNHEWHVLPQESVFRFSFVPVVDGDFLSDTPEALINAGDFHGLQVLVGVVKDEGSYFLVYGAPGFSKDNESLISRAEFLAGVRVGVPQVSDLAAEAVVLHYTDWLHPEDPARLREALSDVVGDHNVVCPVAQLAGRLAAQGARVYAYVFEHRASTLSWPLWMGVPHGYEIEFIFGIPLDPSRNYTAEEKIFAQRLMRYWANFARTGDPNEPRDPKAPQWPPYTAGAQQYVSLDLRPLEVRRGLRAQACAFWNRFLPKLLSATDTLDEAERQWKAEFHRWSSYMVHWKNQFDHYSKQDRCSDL

Row | SMILES | inhibition of acetylcholinesterase (acetylcholinesterase) | irritancy / skin reactions [1] | effectiveness at repelling insects relative to DEET (insects) | toxicity to salamander larvae (salamander larvae)
1 | CCN(CC)C(=O)c1cccc(C)c1 [DEET, N,N-diethyl-meta-toluamide] | inhibit acetylcholinesterase | act as an irritant |  | 
2 | CCC(C)OC(=O)N1CCCCC1CCO (stereo not shown) [Icaridin] |  |  | as effective as DEET | toxic to salamander larvae
